{"source": "paper PMC5012427", "about": "(Molecular cell, 2016)", "key": {"Coq8^NΔ41 (Coq8p)": {"molecular_target": "T1, Coq8^NΔ41 (Coq8p) (Saccharomyces cerevisiae, UniProt P27697, A197G)", "T1 sequence (P27697 42-501 A197G)": "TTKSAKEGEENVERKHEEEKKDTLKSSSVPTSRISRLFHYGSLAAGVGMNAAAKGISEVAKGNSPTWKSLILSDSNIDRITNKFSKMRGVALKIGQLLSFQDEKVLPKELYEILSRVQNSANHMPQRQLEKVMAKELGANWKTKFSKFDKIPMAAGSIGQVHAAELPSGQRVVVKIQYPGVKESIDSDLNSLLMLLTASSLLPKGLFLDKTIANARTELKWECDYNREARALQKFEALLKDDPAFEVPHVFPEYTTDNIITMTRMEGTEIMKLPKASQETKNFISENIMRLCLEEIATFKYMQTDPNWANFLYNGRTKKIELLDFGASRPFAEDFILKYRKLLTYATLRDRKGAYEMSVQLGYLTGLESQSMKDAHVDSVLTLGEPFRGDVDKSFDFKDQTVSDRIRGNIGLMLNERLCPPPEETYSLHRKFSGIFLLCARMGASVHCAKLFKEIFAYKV", "assay": "nucleotide binding", "conditions": "A-rich loop A-to-G mutant"}, "MBP-Coq8^NΔ41": {"molecular_target": "T2, MBP-Coq8^NΔ41 (Saccharomyces cerevisiae, UniProt P27697)", "T2 sequence (P27697 42-501)": "T1 sequence (P27697 42-501 A197G) with G156A", "assay": "co-purification, LC-MS/MS lipidomics", "format": "binding", "conditions": "co-purified from E. coli; WT compared with mutants"}}, "note": "Changes are numbered by the printed parent chain.", "data": [{"smiles": "Nc1ncnc2c1ncn2[C@@H]1O[C@H](COP(=O)(O)OP(=O)(O)O)[C@@H](O)[C@H]1O", "note": "[ADP]", "values": [{"measurement": "nucleotide binding (method in supplement)", "setting": "Coq8^NΔ41 (Coq8p)", "value": "selectivity for ADP over ATP that can be reversed by an A-rich loop A-to-G mutation"}]}, {"smiles": "CC(C)=CCC/C(C)=C/CC/C(C)=C/CC/C(C)=C/CC/C(C)=C/CC/C(C)=C/CC/C(C)=C/Cc1ccccc1O", "note": "[heptaprenylphenol]", "values": [{"measurement": "co-purification, LC-MS/MS lipidomics", "setting": "MBP-Coq8^NΔ41", "value": "binding of OHB, OPP, and heptaprenylphenol (HPP) was decreased by Coq8p active site mutations"}]}]}
